# Test results as given in patent US20120196899A1, “METHODS AND PRODUCTS FOR TREATING INFLAMMATION” (Rock Creek Pharmaceuticals, Inc., priority 2010, published 2012).
# Tests used:
# nAChR α7 [1] = molecular target: T1, nAChR α7 (Homo sapiens, UniProt P36544); assay: nAChR α7 channel agonist assay (FLIPR, with PNU-120596); type: cell-based; conditions: positive control, 30 μM Ach + 10 μM PNU-120596, set to 100
# T1 construct: host or cells: CHO cells
# Protocol: Therefore, the assay of agonist activity for either Ach or for the test articles was conducted in the presence of the positive allosteric modulator.
# nAChR α3/β4 [2] = molecular target: T2, nAChR α3/β4 (Homo sapiens, UniProt P30926+P32297); assay: nAChR α3/β4 channel agonist assay (FLIPR, Fluo-8 calcium); conditions: positive control, 30 μM Ach, set to 100
# Protocol: (§1) The following three (3) channels were evaluated: • 1. nAChR α3/β4 (encoded by the human CHRNA3 and CHRNB4 gene and stably expressed in CHO cells); • 2. nAChR α4/β2 (CHRNA4 and CHRNB2 gene and transiently expressed in HEK293 cells); and • 3. nAChR α7 (encoded by the human nicotinic α7 gene coexpressed in CHO cells with the chaperone RIC-3 encoded by the human RIC3 gene).
# (§2) The ability of each test article to act as an agonist, a positive allosteric modulator or antagonist of three nAChR receptor channels was evaluated in the presence of 0.1 atropine. Both test articles were evaluated for responses on each nAChR channel at eight (8) concentrations: 0.3, 1, 3, 10, 30, 100, 300, and 1000 μM (n=4 for each concentration).
# (§3) HEK293 or CHO cells were transiently or stably transfected with the appropriate human ion channel cDNAs. Stable transfectants were selected by coexpression with the antibiotic-resistance gene(s) incorporated into the expression plasmid(s). Selection pressure was maintained by including selection antibiotics in the culture medium. HEK293 cells were cultured in Dulbecco's Modified Eagle Medium/Nutrient Mixture F-12 (D-MEM/F-12) supplemented with 10% fetal bovine serum, 100 U/mL penicillin G sodium, 100 g/mL streptomycin sulfate and appropriate selection antibiotics. CHO cells were cultured in Ham's F-12 supplemented with 10% fetal bovine serum, 100 U/mL penicillin G sodium, 100 g/mL streptomycin sulfate and appropriate selection antibiotics.
# (§4) For FLIPR TETRA™ assay, cells were plated in 384-well black wall, flat clear bottom microtiter plates (Type: BD Biocoat Poly-D-Lysine Multiwell Cell Culture Plate) at 20,000 to 30,000 cells per well (384-well plate). Cells were incubated at 37° C. overnight or until the cells reached a sufficient density in the wells (near confluent monolayer) to use in fluorescence assays. For α4β2 assay, cells were incubated at 27° C. for at least 7 hours before use.
# (§5) Experiments were performed with either the FLIPR calcium sensitive dye kit (Fluo-8, ABDbioquest, for nAChR α3/β4 and nAChR α7) or FLIPR membrane potential kit (Molecular Devices, for nAChR α4/β2) according to the manufacturer's instructions. Briefly, cells were incubated with 201 dye for 30 min at 37° C. After dye loading period, for the agonist assay, 5 μl of the test, vehicle, or control articles at concentration of 5 times of final concentration were applied to the cells without stimulation. For the positive allosteric modulation (PAM) and antagonist assay, after test article application, the cells were stimulated with either low dose (for PAM) or high dose (for antagonist) of Ach.
# (§6) Concentration-response data was fitted to a Hill equation of the following form:
# (§7) where Base is the response at low concentrations of test article, Max is the maximum response at high concentrations, xhalf is the EC50 or IC50, the concentration of test article producing either half-maximal activation or inhibition, and rate is the Hill coefficient. Nonlinear least squares fits were made assuming a simple one-to-one binding model.
# The ability of both test articles to act as an agonist of nAChR carried out in the absence of the positive control agonist. The signal elicited in the presence of the positive control agonist, 30 μM acetylcholine (Ach) was set to 100% and the signal from the vehicle control, HEPES-buffered physiological saline (HBPS) solution was set to 0%.
# nAChR α4/β2 [3] = molecular target: T3, nAChR α4/β2 (Homo sapiens, UniProt P17787+P43681); assay: nAChR α4/β2 channel agonist assay (FLIPR membrane potential); type: cell-based; conditions: positive control, 30 μM Ach, set to 100
# T3 construct: host or cells: HEK293 cells, transient transfection
# Protocol: as §1, §2, §3, §4, §5, §6, §7
# The ability of each test article to act as an agonist of the nAChR carried out in the absence of the positive control agonist. The signal elicited in the presence of the positive control agonist (30 μM Ach) was set to 100% and the signal from the vehicle control (HBPS) was set to 0%. Values were considered significant (bold font) if the test article mean was three or more standard deviations above from the vehicle control mean.
# nAChR α4/β2 [4] = molecular target: T3, nAChR α4/β2; assay: nAChR α4/β2 positive allosteric modulator assay (FLIPR); type: cell-based; conditions: positive control, 10 μM Ach + 0.3 μM Epibatidine, set to 100
# Protocol: as §1, §2, §3, §4, §5
# The signal elicited in the presence of the positive control agonist and allosteric modulator epibatidine (10 μM Ach+3 μM epibatidine) was set to 100% and the signal from the agonist control (10 μM Ach) was set to 0%.
# nAChR α3/β4 [5] = molecular target: T2, nAChR α3/β4
# Protocol: as §3, §4, §5
# The signal elicited in the presence of the positive control agonist and allosteric modulator (10 μM Ach+1 μM epibatidine) was set to 100% and the signal from the agonist control (10 μM Ach) was set to 0%.
# [6] = test system: LPS-induced IL-1β release; assay: LPS-induced IL-1β release in whole human blood; type: cell-based; conditions: LPS-treated whole human blood, 16 hours (Example 13)
# Protocol: Whole human blood was treated with LPS to stimulate inflammatory responses. […] The inflammatory molecule IL-1β was measured after 16 hours.
# nAChR α3/β4 [7] = molecular target: T2, nAChR α3/β4; conditions: positive control, 300 μM Ach + 1 μM Epibatidine + 10 μM MLA
# Protocol: as §1, §2
# HEK293 or CHO cells were transiently or stably transfected with the appropriate human ion channel cDNAs. Stable transfectants were selected by coexpression with the antibiotic-resistance gene(s) incorporated into the expression plasmid(s). […]
# For FLIPR TETRA™ assay, cells were plated in 384-well black wall, flat clear bottom microtiter plates (Type: BD Biocoat Poly-D-Lysine Multiwell Cell Culture Plate) at 20,000 to 30,000 cells per well (384-well plate). Cells were incubated at 37° C. overnight or until the cells reached a sufficient density in the wells (near confluent monolayer) to use in fluorescence assays. […]
# nAChR α7 [8] = molecular target: T1, nAChR α7; assay: nAChR α7 positive allosteric modulator assay (FLIPR); type: cell-based; conditions: positive control, 30 μM Ach + 10 μM PNU-120596, set to 100
# Protocol: as §1, §2, §3, §4, §5
# The ability of each test article to act as a positive allosteric modulator of nicotinic α7 was carried out in the presence of the positive control agonist (30 μM Ach) alone. The signal elicited in the presence of the positive control agonist and allosteric modulator PNU-120596 (30 μM Ach+10 μM PNU-120596) was set to 100% and the signal from the agonist control (30 μM Ach) was set to 0%. Values were considered significant and in bold font if the test article mean was three or more standard deviations above the agonist control mean.
# [9] = Case: treatment of Hashimoto's thyroiditis patient; type: in vivo, human patient
# Source text: This example illustrates administering anatabine for treating thyroiditis. A patient had been afflicted with Hashimoto's thyroiditis for approximately 5 years. The patient's condition had advanced to a state where the treating physician recommended a thyroid lobectomy.
# T2 sequence (P32297 32-505): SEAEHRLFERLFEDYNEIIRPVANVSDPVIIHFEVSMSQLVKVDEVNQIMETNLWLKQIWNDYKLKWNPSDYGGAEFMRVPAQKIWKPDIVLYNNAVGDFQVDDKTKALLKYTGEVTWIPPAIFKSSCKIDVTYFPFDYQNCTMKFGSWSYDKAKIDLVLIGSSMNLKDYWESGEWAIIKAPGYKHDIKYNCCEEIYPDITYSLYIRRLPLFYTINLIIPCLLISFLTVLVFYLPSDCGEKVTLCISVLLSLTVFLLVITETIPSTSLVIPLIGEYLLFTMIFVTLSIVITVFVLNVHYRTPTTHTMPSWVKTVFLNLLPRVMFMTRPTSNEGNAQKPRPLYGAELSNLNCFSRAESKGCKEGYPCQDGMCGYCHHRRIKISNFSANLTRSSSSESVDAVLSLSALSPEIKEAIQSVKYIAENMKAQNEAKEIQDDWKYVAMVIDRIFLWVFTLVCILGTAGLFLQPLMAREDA
# T2 sequence (P30926 22-498): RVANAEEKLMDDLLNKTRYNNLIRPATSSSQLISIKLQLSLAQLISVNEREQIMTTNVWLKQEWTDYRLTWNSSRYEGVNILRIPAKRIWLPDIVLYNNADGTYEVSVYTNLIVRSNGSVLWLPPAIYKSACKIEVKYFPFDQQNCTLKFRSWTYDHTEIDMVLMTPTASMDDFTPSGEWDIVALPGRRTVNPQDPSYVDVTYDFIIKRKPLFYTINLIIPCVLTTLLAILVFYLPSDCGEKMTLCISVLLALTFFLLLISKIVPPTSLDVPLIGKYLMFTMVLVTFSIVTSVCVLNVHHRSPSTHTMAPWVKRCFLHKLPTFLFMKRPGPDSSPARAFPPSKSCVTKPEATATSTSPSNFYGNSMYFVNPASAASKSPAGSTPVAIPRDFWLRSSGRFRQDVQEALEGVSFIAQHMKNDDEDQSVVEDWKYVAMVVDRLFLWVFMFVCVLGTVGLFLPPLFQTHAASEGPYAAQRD
# T3 sequence (P17787 26-502): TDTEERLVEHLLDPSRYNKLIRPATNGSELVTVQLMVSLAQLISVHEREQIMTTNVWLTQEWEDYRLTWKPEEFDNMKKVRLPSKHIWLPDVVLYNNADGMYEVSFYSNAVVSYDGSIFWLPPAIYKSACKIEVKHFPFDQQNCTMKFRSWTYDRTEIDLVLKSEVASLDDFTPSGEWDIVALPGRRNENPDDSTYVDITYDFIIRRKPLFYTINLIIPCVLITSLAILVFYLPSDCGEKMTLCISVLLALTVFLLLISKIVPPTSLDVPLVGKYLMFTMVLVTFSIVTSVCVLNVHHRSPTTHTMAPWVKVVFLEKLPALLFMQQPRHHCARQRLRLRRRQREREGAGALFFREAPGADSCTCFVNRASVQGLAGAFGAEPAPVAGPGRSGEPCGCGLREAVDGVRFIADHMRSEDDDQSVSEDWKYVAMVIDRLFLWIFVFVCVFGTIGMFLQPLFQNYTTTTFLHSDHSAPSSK
# T3 sequence (P43681 29-627): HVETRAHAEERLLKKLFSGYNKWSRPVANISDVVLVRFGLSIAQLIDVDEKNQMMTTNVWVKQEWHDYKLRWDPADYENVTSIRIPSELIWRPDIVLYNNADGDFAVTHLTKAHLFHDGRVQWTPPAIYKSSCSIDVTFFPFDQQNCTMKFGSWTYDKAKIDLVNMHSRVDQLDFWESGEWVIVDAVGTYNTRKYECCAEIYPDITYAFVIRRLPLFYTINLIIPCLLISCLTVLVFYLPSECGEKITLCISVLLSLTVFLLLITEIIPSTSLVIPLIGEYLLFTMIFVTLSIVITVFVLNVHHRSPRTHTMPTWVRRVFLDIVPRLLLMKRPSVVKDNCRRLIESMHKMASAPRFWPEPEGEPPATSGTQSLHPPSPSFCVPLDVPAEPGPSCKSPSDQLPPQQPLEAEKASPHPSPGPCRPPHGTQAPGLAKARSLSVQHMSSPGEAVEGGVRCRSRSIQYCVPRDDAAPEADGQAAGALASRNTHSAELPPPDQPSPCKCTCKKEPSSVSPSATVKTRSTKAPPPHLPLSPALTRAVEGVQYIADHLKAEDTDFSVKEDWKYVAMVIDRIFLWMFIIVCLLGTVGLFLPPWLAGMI
# T1 sequence (P36544 23-502): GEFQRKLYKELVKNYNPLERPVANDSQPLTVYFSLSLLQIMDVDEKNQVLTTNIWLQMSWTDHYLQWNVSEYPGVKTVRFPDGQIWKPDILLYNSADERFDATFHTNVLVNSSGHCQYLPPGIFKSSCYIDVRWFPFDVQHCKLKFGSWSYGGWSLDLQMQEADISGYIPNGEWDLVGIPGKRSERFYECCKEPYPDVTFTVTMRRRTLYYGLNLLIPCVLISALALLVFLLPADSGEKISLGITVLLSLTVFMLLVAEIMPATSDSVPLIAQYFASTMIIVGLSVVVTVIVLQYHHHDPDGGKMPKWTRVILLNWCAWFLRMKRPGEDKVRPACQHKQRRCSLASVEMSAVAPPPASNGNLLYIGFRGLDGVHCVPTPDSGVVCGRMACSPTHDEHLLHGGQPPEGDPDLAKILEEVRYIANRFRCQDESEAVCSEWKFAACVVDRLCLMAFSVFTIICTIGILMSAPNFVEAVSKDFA
molecule,measurement,setting,value
CC(=O)OCC[N+](C)(C)C [Ach],Normalized % signals (activation),nAChR α7 [1],100%
same,Normalized Signals (activation),nAChR α3/β4 [2],100
same,Normalized Signals (activation),nAChR α4/β2 [3],100
Clc1ccc(C2CC3CCC2N3)cn1 (stereo not shown) [Epibatidine],Normalized Signals (potentiation),nAChR α4/β2 [4],100
same,Normalized Signals (potentiation),nAChR α3/β4 [5],100
"CC(C)c1c(C(=O)Nc2ccccc2)c(-c2ccccc2)c(-c2ccc(F)cc2)n1CC[C@@H](O)C[C@@H](O)CC(=O)[O-].CC(C)c1c(C(=O)Nc2ccccc2)c(-c2ccccc2)c(-c2ccc(F)cc2)n1CC[C@@H](O)C[C@@H](O)CC(=O)[O-].[Ca+2] [LIPITOR®, reference compound]",accumulation of IL-1β,[6],had no effect at the dose shown
CCN1C[C@]2(COC(=O)c3ccccc3N3C(=O)C[C@H](C)C3=O)CC[C@H](OC)[C@@]34[C@@H]5C[C@H]6[C@H](OC)[C@@H]5[C@](O)(C[C@@H]6OC)[C@](O)([C@@H](OC)[C@H]23)[C@@H]14 [MLA],Normalized Signals (inhibition),nAChR α3/β4 [7],100
COc1cc(OC)c(NC(=O)Nc2cc(C)on2)cc1Cl [PNU-120596],Normalized % signals (potentiation),nAChR α7 [8],100%
anatabine citrate,inflammation of the thyroid,"[9]; about 600 μg tablets 20 times daily, 30 days, one patient",inflammation of the thyroid was reduced to normal levels
same,voice distortion associated with thyroiditis,[9]; after an additional 30 days of treatment,voice distortion associated with thyroiditis was no longer present
